This test has as its system P388/0 cell lines. Put plainly: Cytotoxicity assay, growth inhibition of P388/0 cells (Alamar Blue). Type of test: cell-based. The following applies: 3 days incubation at 37° C., drug concentration inhibiting growth of cells by 50%. The method, then: Cell Lines and Cytotoxicity Assays. Studies using P388/0 cell lines for IC50 (drug concentration inhibiting growth of cells by 50%) were maintained and conducted using standard procedures. Briefly, for IC50 determination, cells were seeded into the microwell plates at a density of 2×10^3 cells per 50 μL per well. Plates were incubated at 37° C. in a humidified incubator with 5% CO2 for 3 days. Cell growth was measured by the addition of 10 μL/well of Alamar Blue (Alamar Biosciences, Inc., Sacramento, Calif.) and the plates were incubated a further 4 hours at 37° C. The IC50 values for each compound were determined from absorbance versus dilution factor plots. All cell cultures for animal implantation were maintained at 37° C. in a humidified atmosphere of 5% CO2/[…] and subcultured once a week. All cell lines were periodically tested for Mycoplasma and were Mycoplasma free.
In general terms: Alamar Blue is a resazurin reagent that responds to reducing activity.

For one compound, IC50 results are on record in patent US6756037B2, “Polymer conjugates of biologically active agents and extension moieties for facilitating conjugation of biologically active agents to polymeric terminal groups” (Enzon, Inc., priority 2000, dated 2004).

With `Nc1ccn([C@@H]2O[C@H](CO)[C@@H](O)[C@@H]2O)c(=O)n1` [Ara-C, ara-C], the IC50 (usually the concentration at which inhibition is half-maximal) was determined as 10 nM.
